Measurements taken from patent US4298739A, “Novel carbostyril derivatives” (priority 1977, dated 1981).
Read-outs that look alike come from different tables or passages of the source.

Tests used:
[1] = Acute toxicity test, oral administration to mice; format: in vivo; conditions: mouse, in vivo, Male mice
Experimental: The test compounds were administered orally to the mice and LD50 (mg/kg) of the compounds was determined.

[2] = target: T1, cyclic AMP phosphodiesterase (Oryctolagus cuniculus, UniProt G1ST54); assay: Obstructive action against cyclic AMP phosphodiesterase; format: biochemical, rabbit
T1 construct: the supernatant was collected to use it as a crude enzyme solution; from tissue; host or cells: rabbit platelets (from platelet-rich plasma), 100,000 xg supernatant, DEAE-cellulose fraction
T1 sequence (G1ST54 1-1128): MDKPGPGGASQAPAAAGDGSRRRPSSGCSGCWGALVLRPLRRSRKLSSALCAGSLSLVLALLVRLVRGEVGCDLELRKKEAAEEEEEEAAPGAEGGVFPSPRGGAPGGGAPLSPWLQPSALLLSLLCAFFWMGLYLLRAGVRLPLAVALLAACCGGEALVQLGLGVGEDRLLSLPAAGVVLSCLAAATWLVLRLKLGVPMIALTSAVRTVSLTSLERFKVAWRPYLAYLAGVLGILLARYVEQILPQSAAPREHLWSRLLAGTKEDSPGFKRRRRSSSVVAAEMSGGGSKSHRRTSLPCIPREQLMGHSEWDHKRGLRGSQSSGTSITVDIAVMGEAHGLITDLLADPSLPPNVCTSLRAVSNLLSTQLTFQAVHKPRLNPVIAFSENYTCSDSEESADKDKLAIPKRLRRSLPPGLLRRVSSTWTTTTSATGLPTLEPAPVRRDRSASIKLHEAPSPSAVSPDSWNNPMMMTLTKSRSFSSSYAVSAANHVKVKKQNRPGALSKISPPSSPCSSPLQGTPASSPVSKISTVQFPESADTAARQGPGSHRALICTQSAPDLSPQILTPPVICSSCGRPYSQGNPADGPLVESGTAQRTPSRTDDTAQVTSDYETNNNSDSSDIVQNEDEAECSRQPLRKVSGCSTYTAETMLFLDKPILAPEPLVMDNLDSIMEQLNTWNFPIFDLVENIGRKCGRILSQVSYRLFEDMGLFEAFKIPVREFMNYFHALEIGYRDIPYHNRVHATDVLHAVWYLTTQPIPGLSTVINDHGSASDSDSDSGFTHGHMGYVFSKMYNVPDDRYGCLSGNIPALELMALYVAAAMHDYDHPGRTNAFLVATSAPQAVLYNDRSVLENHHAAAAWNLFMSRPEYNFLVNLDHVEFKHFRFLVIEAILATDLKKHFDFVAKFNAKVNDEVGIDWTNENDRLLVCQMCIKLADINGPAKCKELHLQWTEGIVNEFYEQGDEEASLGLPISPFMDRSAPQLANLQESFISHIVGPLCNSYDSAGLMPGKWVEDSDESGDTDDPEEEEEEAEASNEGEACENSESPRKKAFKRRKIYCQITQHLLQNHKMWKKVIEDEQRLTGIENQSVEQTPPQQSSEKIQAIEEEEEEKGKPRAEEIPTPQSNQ
Experimental: The obstructive action against cyclic AMP phosphodiesterase was measured according to the activity measuring method described in "Biochimica et Biophysica Acta", Vol. 429, pp. 485-497 (1976) and "Biochemical Medicine", Vol. 10, pp. 301-311 (1974).
That is, for determining the obstructive activity against cyclic AMP phosphodiesterase, 10 ml of a solution obtained by adding 1 mmol of MgCl2 into 50 mmol of tris-hydrochloric acid buffer with pH 7.4 was added to the platelets obtained by further centrifuging the abovesaid rabbit PRP at 3,000 r.p.m. for 10 minutes, and the suspended platelets were ground by a Teflon potter type homogenizer. This was followed by two times of freezing and thawing treatment and 300-second fracturing with 200 watt supersonic waves. After additional 60-minute centrifugation with 100,000 xg, the supernatant was collected to use it as a crude enzyme solution.
10 Milliliters of this crude buffer solution was added to a 1.5×20 cm DEAE-cellulose column which has previously been buffered with 50 mmol of tris-acetate buffer (pH 6.0), followed by washing and elution with 30 ml of 50 mmol tris-acetate buffer, and this buffer solution was subjected to linear gradient elution with 0 to 0.5 moles of sodium acetate-tris-acetatebuffer. The flow rate was 0.5 ml/min, and 5 ml of each fraction was batched out. […] This fraction was used as cyclic AMP phosphodiesterase.
0.1 Milliliter of an aqueous solution of each test compound of a specified concentration was mixed with 40 mmol of tris-hydrochloric acid buffer (pH 8.0, containing 50 μg of cow serum albumin and 4 mmol of MgCl2) containing predetermined 1.0 μmol of cyclic AMP (tritium cyclic AMP), and 0.2 ml of this mixed solution was used as substrate solution.
0.2 Milliliter of the above-prepared cyclic AMP phosphodiesterase of a predetermined concentration was added to said substrate solution and the mixture was reaction at 30° C. for 20 minutes, producing tritium 5'-AMP from the tritium cyclic AMP.
The reaction system was then immersed in boiling water for 2 minutes to stop the reaction, and then this reaction solution was cooled in ice water and, for converting the produced tritium 5'-AMP into tritium adenosine, the solution was added with 0.05 ml (1 mg/ml) of snake poison as 5'-nucleotidase and reacted at 30° C. for 10 minutes. The whole amount of this reaction solution was then added to a cation exchange resin (AG 500 W×4, 200-400 meshes, manufactured by Bio-Rad Co., column size: 0.5×1.5 cm), and the produced tritium anodesine alone was allowed to combine, washed with 6 ml of distilled water and eluted with 1.5 ml of 3 N-ammonia water. The whole quantity of the elutant was added with 10 ml of a triton-toluene type scintillator and the produced tritium adenosine was measured by a liquid scintillation counter to determine the phosphodiesterase activity.
In this way, the phosphodiesterase activation value (Vs) of the test compounds of the respective concentrations was determined, and the phosphodiesterase obstruction rate (%) was determined from said activation value (Vs) and control value (Vc) (obtained from water not containing any test compound) from the following formula: [formula]

[3] = pH 8, read-out: phosphodiesterase obstruction rate

Structure (SMILES)	LD50 [1] [mg/kg]	inhibition at 10 µM ([2]; 10^-5 mole, 1.0 μmol cyclic AMP, pH 8.0, 30° C., read-out: phosphodiesterase obstruction rate) [%]	inhibition at 1 µM ([2]; 10^-6 mole, 1.0 μmol cyclic AMP, pH 8.0, 30° C., read-out: phosphodiesterase obstruction rate) [%]	inhibition at 0.1 µM ([2]; 10^-7 mole, 1.0 μmol cyclic AMP, pH 8.0, 30° C., read-out: phosphodiesterase obstruction rate) [%]	inhibition at 0.01 µM ([2]; 10^-8 mole, 1.0 μmol cyclic AMP, pH 8.0, 30° C., read-out: phosphodiesterase obstruction rate) [%]	inhibition at 0.001 µM ([2]; 10^-9 mole, 1.0 μmol cyclic AMP, pH 8.0, 30° C., read-out: phosphodiesterase obstruction rate) [%]	inhibition at 0.001 µM [2, 3] [%]	inhibition at 0.01 µM [2, 3] [%]	inhibition at 0.1 µM [2, 3] [%]	inhibition at 1 µM [2, 3] [%]	inhibition at 10 µM [2, 3] [%]
CC(=O)OC1CCC(N(C)C(=O)CCCOc2ccc3[nH]c(=O)ccc3c2)CC1 (stereo not drawn) [compound 3, 6-{3-[N-Methyl-N-(4-acetyloxycyclohexyl)aminocarbonyl]propoxy}carbostyril]	> 1000	98.5	95.5	88.4	61.1	13.4					
CN(C(=O)CCCOc1ccc2[nH]c(=O)ccc2c1)C1CCCCC1 [compound 16, 6-[3-(N-Methyl-N-cyclohexylaminocarbonyl)propoxy]carbostyril]	> 1000						7.1	22.3	79.3	87.5	80.5
